Assay: PORTICO PK substudy: steady-state plasma macitentan and ACT-132577
Assay type: in vivo, human
Description: It was planned to enroll at least 20 patients who were on steady-state treatment with macitentan (i.e., at least 4 weeks) into the PK substudy. The substudy was conducted in consenting patients from all centers across all regions who agreed to participate. The substudy consisted of the following periods:
PK assessments period: PK assessments were to be performed after OL study treatment had been taken for at least 4 weeks. The substudy comprised two visits (Day 1: Enrollment and Day 2: Conclusion). See, FIG. 2. Subject eligibility was first checked on Day 1 of the PK substudy prior to the start of assessments.
PK substudy: On Day 1 of the PK substudy, the study treatment was required to be taken directly after the pre-dose blood sample. On Day 2 of the PK substudy, study treatment was required to be taken after the collection of the last PK blood sample (24 hours post Day 1 dose).
F3. Pharmacokinetic Endpoints for Macitentan and its Active Metabolite ACT-132577 • The area under the plasma concentration-time curve during one dosing interval (AUCt). • Maximum plasma concentration (Cmax) during a dosing interval. • The time to reach maximum plasma concentration (tmax) during a dosing interval.
(i) Timing for sampling: For the PK assessment, blood samples were drawn at the following time points: • PK substudy Day 1: Immediately before study treatment administration in the morning (pre-dose) and 1 h, 3 h, 5 h, 6 h, 7 h, 8 h, 9 h, 10 h, 12 h, and 14 h post-dose. • PK substudy Day 2: 24 h post-dose.
(iii) Bioanalysis: A validated liquid chromatography coupled to mass spectrometry method was used for determining the concentrations of macitentan and its metabolite ACT-132577 in plasma. The limit of quantification (LOQ) for both analytes was 1 ng/mL.
The measured individual plasma concentrations of macitentan and its metabolite ACT-132577 were used to directly obtain Cmax and tmax. AUCT was calculated according to the linear trapezoidal rule using the measured concentration-time values above the LOQ during one dosing interval. The PK variables were calculated on the basis of the real (actual) blood sampling time points. For mean value calculations, all values below the LOQ (below the limit of quantification (BLQ) values) were set to zero if ≤50% of the values at a given time point were BLQ. If >50% of the values at a given time point were BLQ, no mean value was calculated. Mean concentration-time profiles were generated using these criteria. The individual and mean plasma concentration-time profiles were plotted on a linear scale. The derived PK variables for macitentan and ACT-132577 (AUCT, Cmax, tmax) are listed by patient. Plasma concentrations per time point were summarized using arithmetic mean, minimum, median, maximum, standard deviation (SD), standard error (SE), and two-sided 95% confidence interval of the mean. […] (*For tmax the geometric mean and its 95% confidence interval were not calculated).

For NS(=O)(=O)Nc1ncnc(OCCOc2ncc(Br)cn2)c1-c1ccc(Br)cc1 [ACT-132577, aprocitentan], the “Plasma exposure in PoPH patients compared with other forms of PAH / other macitentan studies” value was “consistent between PoPH patients and patients with other forms of PAH”, the “Trough plasma concentration, mean±SD” value (OL macitentan 10 mg o.d. at least 4 weeks, PoPH patients, n=8) was 737.4 ± 190.0 ng/mL and the Cmax (human, plasma, oral, macitentan 10 mg o.d., PoPH patients, PKS 10 patients, read-out: Cmax, geometric mean (95% confidence interval)) was 870 ng/mL. For the same molecule, the Tmax (human, plasma, oral, macitentan 10 mg o.d., PoPH patients, PKS 10 patients, read-out: tmax, median (range)) was 6.5 h and the “AUCT, geometric mean (95% confidence interval)” value (one dosing interval, macitentan 10 mg o.d., PoPH patients) was 18100.0 ng·h/mL.

Source: patent publication US20220257595A1, “MACITENTAN FOR USE IN TREATING PORTOPULMONARY HYPERTENSION” (ACTELION PHARMACEUTICALS LTD, priority 2019, published 2022)
